The text below walks through data of article PMC5392131 (Current topics in behavioral neurosciences, 2017).

Structures are written as SMILES. Read-outs that look alike come from different tables or passages of the source. Bounds are passed on as bounds.

In series [1] the test system is male Sprague–Dawley rats. In words: Locomotor activity. As to conditions: rats undergoing microdialysis; i.v. 3 mg/kg (after 1.0 mg/kg at time zero). The class given is in vivo, rat.
Series [2] relates to extracellular dopamine in nucleus accumbens. In words: In vivo microdialysis in nucleus accumbens, dialysate dopamine. As to conditions: rat nucleus accumbens; i.v. 3 mg/kg (after 1.0 mg/kg at time zero).
Series [3] in a line: Plasma pharmacokinetics of MDPV and metabolites after i.p. MDPV administration. The conditions noted are these: rat plasma.
For series [4], the system named is DAT. The experiment in a line: DAT uptake inhibition in rat brain synaptosomes. As to conditions: for DAT/SERT ratio: (DAT IC50)^−1/(SERT IC50)^−1, higher values indicate greater DAT selectivity. The class given is biochemical.
Series [5] relates to extracellular dopamine in nucleus accumbens. As to conditions: rats, cited from earlier work; for Elevation in extracellular dopamine: i.v. 0.3 mg/kg MDPV, 3.0 mg/kg methylone.
The next series relates to CYP 2D6. As to conditions: read-out: CYP 2D6 inhibition IC50; in vitro; cited from earlier work.
The next series relates to NET. The experiment in a line: NET uptake inhibition in rat brain synaptosomes. It counts as biochemical. The conditions noted are these: relative to cocaine.
The subject of series [6] is male Sprague–Dawley rats. As to conditions: cited from earlier work.
A further series concerns SERT. In words: SERT uptake inhibition in rat brain synaptosomes. As to conditions: relative to cocaine. It counts as biochemical.
For series [7] the following is noted: cited from earlier work.
Series [8] deals with extracellular 5-HT in nucleus accumbens. As to conditions: rats; i.v. 3.0 mg/kg methylone; cited from earlier work.
Series [9] relates to DAT. As to conditions: S-MDPV versus R-MDPV; cited from earlier work.
The mark [10] stands for this setting: i.p. MDPV 0.5 mg/kg, mean±SEM, N=6.
The mark [11] stands for this setting: i.p. MDPV 1.0 mg/kg, mean±SEM, N=6.
Setting [12] is: i.p. MDPV 2.0 mg/kg, mean±SEM, N=6.
[13] abbreviates: i.p. MDPV 2.0 mg/kg, mean±SEM, N=6, listed as MPDV.

`CCCC(C(=O)c1ccc(O)c(O)c1)N1CCCC1` (centres unmarked) [3,4-Catechol-PV, 3,4-dihydroxypyrovalerone]: the Effect on ambulation entry with male Sprague–Dawley rats [1] was “no change in ambulation”. The “Effect on extracellular dopamine” value in series [2] is “small, albeit significant, elevations”. Further, in series [3] (setting [10]), the AUC is listed as 2,822±415 min μg/L, the Cmax was 14 ± 2 µg/L and the Tmax came out at 160 ± 25 min. Further, in [3] (setting [11]), the AUC is reported as 8,317±589 min μg/L, the highest concentration (Cmax) was determined as 36 ± 4 µg/L and the time of peak concentration (Tmax) was found to be 189 ± 59 min. Besides, in [3] (setting [12]), the AUC is reported as 12,762±1,625 min μg/L, the Cmax is 46 ± 9 µg/L and the time of peak concentration (Tmax) was determined as 206 ± 25 min.

With `CCCC(C(=O)c1ccc(O)c(OC)c1)N1CCCC1` (centres unmarked) [4-OH-3-MeO-PV, 4-hydroxy-3-methoxypyrovalerone], in [3] (setting [10]), the AUC was 14,657±2,577 min μg/L, the Cmax stood at 57 ± 7 µg/L and the Tmax was 168 ± 27 min. In addition, in [3] (setting [11]), the AUC is 28,168±3,373 min μg/L, the Cmax amounted to 135 ± 23 µg/L and the Tmax is 260 ± 24 min. In addition, in [3] (setting [12]), the AUC is 51,925±7,946 min μg/L, the highest concentration (Cmax) was determined as 198 ± 31 µg/L and the Tmax is 240 ± 54 min. In the series on DAT [4], the DAT/SERT ratio is reported as >12.

As for `CC(N)Cc1ccccc1` (centres unmarked) [Amphetamine, reference compound], in the series on DAT [4], the DAT/SERT ratio was determined as 36.75.

Take `COC(=O)[C@H]1[C@@H](OC(=O)c2ccccc2)C[C@@H]2CC[C@H]1N2C` [Cocaine, reference compound]: the DAT/SERT ratio in the series with DAT [4] is recorded as 1.48.

`CCCC(C(=O)c1ccc2c(c1)OCO2)N1CCCC1` (centres unmarked) [MDPV, 3,4-methylenedioxypyrovalerone]: the “Elevation in extracellular dopamine” value in [5] is given as “threefold”. Further, the “Potency to increase dialysate dopamine compared to cocaine” value in series [5] (i.v. administration) was “tenfold more potent”. For the same molecule, the IC50 in the series with CYP 2D6 is 1300 nM. In the series with NET, the “Potency as inhibitor at NET compared to cocaine” value was “tenfold more potent”. For the same molecule, in the series on male Sprague–Dawley rats [6], the “Potency as locomotor stimulant compared to cocaine” value was “about tenfold more potent”. Also, the “Potency as inhibitor at SERT compared to cocaine” value in the series on SERT was “tenfold less potent”. Moreover, the “Half-life (t1/2)” value in series [7] (rat plasma, 2 mg/kg s.c. MDPV) was “about 80 min”. Further, the “Plasma Cmax” value in series [7] (rat, 2 mg/kg s.c. MDPV) was 271 µg/L. In addition, the “Time of maximal plasma concentration (Cmax) after injection” value in [7] (rat, s.c. MDPV (0.5, 1, 2 mg/kg)) is 15 to 20 min. For the same molecule, the Cmax in series [7] (read-out: Plasma Cmax (molar), rat, 2 mg/kg s.c. MDPV) is ~1000 nM; in [3] (setting [10]), 20 ± 5 µg/L; in [3] (setting [11]), 54 ± 18 µg/L; in [3] (setting [12]), 135 ± 29 µg/L; in series [3] (read-out: Cmax (molar), i.p. MDPV 2 mg/kg), ~500 nM. In addition, the AUC in series [3] (setting [10]) is on record as 1,114 min μg/L; in series [3] (i.p. MDPV 0.5 mg/kg, mean±SEM, N=6, listed as MPDV), 1,114±330 min μg/L; in series [3] (setting [11]) it was 2,858±859 min μg/L; in series [3] (setting [12]), 8,726 min μg/L; in series [3] (setting [13]), 8,726±1,877 min μg/L. Besides, the Tmax in series [3] (setting [10]), in series [3] (setting [11]) and in series [3] (setting [12]) was 10 ± 0 min in each case. Moreover, the t1/2 in series [3] (setting [10]) was found to be 92 ± 7 min; in [3] (setting [11]) it was 79 ± 13 min; in series [3] (setting [13]) it was 99 ± 14 min. Further, the “Time at which Cmax is achieved” value in series [3] (i.p. MDPV (0.5, 1, 2 mg/kg)) is ≤ 10 min. The DAT/SERT ratio in the series on DAT [4] was found to be 816.82. In addition, the “Potency as inhibitor at DAT compared to cocaine” value with DAT [4] (rat brain synaptosomes, relative to cocaine) was 50 fold.

`CNC(C)C(=O)c1ccc(C)cc1` (centres unmarked) [Mephedrone, 4-methyl-N-methylcathinone, reference compound]: the DAT/SERT ratio in the series with DAT [4] was determined as 0.55.

As for `CNC(C)C(=O)c1ccc2c(c1)OCO2` (centres unmarked) [Methylone, 3,4-methylenedioxy-N-methylcathinone, reference compound], the “Elevation in extracellular dopamine” value in series [5] was “threefold”. The “Elevation in extracellular 5-HT” value in [8] is “tenfold”. In the series with DAT [4], the DAT/SERT ratio was determined as 0.77.

`CCC[C@@H](C(=O)c1ccc2c(c1)OCO2)N1CCCC1` [S-MDPV]: in the series on DAT [9], the “Potency at inhibiting DAT compared to R-MDPV” value is listed as 100 times.

On to `CCC(C(=O)c1ccccc1)N1CCCC1` (stereo not drawn) [α-PBP, α-pyrrolidinobutiophenone], for which the DAT/SERT ratio with DAT [4] is given as >159.

`CC(C(=O)c1ccccc1)N1CCCC1` (stereo not drawn) [α-PPP, α-pyrrolidinopropiophenone]: the DAT/SERT ratio with DAT [4] is recorded as >50.

With `CCCC(C(=O)c1ccccc1)N1CCCC1` (stereo not drawn) [α-PVP, α-pyrrolidinovalerophenone], the DAT/SERT ratio with DAT [4] is listed as >833.

By Cmax is commonly meant the peak of the concentration-time curve. Usually Tmax stands for the time at which the peak concentration occurs. One may read the IC50 as the concentration that gives 50% inhibition.
